# Earlier results, collected in patent US20170303537A1, “COMPOSITIONS OF A QUATERNARY AMMONIUM COMPOUND WITH A MONOCARBOXYLIC FATTY ACID” (OMS INVESTMENTS, INC., priority 2016, published 2017).
smiles,measurement,value
CCCCCCCCC(=O)O [pelargonic acid],pKa,about 5
